Legend:
[1] = tested on: GRMD dogs; assay: Tibiotarsal joint (TTJ) tetanic force/torque, GRMD dogs; format: in vivo, dog; conditions: for Absolute Tetanic Extension Force / Absolute Tetanic Extension Torque / Absolute Tetanic Flexion Force / Absolute Tetanic Flexion Torque / Body-mass Corrected Tetanic Extension Force / Body-mass Corrected Tetanic Extension Torque / Body-mass Corrected Tetanic Flexion Force / Body-mass Corrected Tetanic Flexion Torque: n = 6
Procedure: The GRMD disease phenotype was initially determined based on elevation of serum creatine kinase and confirmed by PCR. Two cohorts of GRMD dogs were treated with a 4-month course of NBD (10 mg/kg, IV) (American Peptides; Sunnyvale, CA, USA), beginning at approximately 2 months of age. The first cohort included four GRMD (Wasabi, Pepper, Hiver, and Automne) and two wild type (Cumin and Fennel) dogs, while the second cohort included two GRMD (Peach and Kiwi) and one wild type (Mango) dog. Results were compared with those collected from 10 untreated GRMD dogs (Cilantro, Lyle, Napoleon, Summer, Jane, Cosmo, Dorothy, Toto, Hickory, and Zeke) and eight age-matched wild type littermates (Oregano, Parsley, Kip, Pedro, Pinkman, Saul, Heisenberg, and Tuco) through a parallel, but separate, natural history study in which functional, magnetic resonance imaging (MRI), and pathologic data were collected.
For all tests, dogs were anesthetized (premeds: acepromazine maleate (0.02 mg/kg), butorphanol (0.4 mg/kg), and atropine sulfate (0.04 mg/kg); masked/intubated; and maintained with sevoflurane). To assess force and eccentric contraction decrement (below), dogs were positioned in dorsal recumbence in a custom-made stereotactic frame that aligns the tibia parallel to the table at a 90° angle to the femur. The angle at which maximal joint torque is generated during isometric contractions has been termed the optimal joint angle, which is analogous to the optimal fiber length (Lo) for individual muscle force measurements. Our choice of 90° as the optimal joint angle was based on studies in which torque was measured over a range of angles. The length-tension relationship was not shifted for normal versus GRMD dogs. TTJ flexion and extension torque (N-m) was measured by a rapid-response servomotor/force transducer (model 310B LR, Aurora Scientific, Inc., Aurora, ON, Canada) controlled by a PC using custom LabView software. Either the common peroneal (TTJ flexion) or tibial (TTJ extension) nerve was stimulated using paired stimulating and reference 27-gauge monopolar electrodes placed just distal to the fibular head (common peroneal nerve) or within the gastrocnemius muscles (tibial nerve), respectively. As a result, the paw of the distal pelvic limb pulled (flexion) or pushed against (extension) a pedal affixed to a transducer, providing a measure of isometric torque. Supramaximal 150 V, 100 μs pulses were applied (Model S48 Solid State Square Wave Stimulator; Grass Instruments, Quincy, MA, USA) in a tetanic run of 250 pulses (50/s). The site of contact for the paw with the lever (moment arm) was estimated to be 75% of the distance between the point of the hock and the distal digit. Torque (Newton-meters) was divided by the moment arm (meters) to convert to force (Newtons).

[2] = tested on: GRMD dogs; assay: Eccentric contraction decrement (ECD), GRMD dogs; format: in vivo, dog; conditions: n = 6; for ECD (1-10): after 10 contractions; for ECD (1-30): after 30 contractions
Excerpt: Eccentric contractions were induced by stimulating the peroneal nerve using square wave pulses of 100 μs duration in a tetanic run for 1 s at a frequency of 50 Hz while simultaneously extending the TTJ with a servomotor (Aurora Scientific, Aurora, ON, Canada). The contraction was held isometric at the optimal joint angle, expressed as Lo here (see discussion above), for the first 900 ms. For the final 100 ms, the muscles of the cranial tibial compartment were stretched by the servomotor at 0.7 Lo/s, such that the muscles were displaced to 107% of Lo. Thus, the muscles of the cranial tibial compartment were repeatedly stretched to induce mechanical damage. Three sets of 10 stretches for a total of 30, each set separated by 4 min, were performed. Contraction-induced injury was quantified by the force (torque) deficit (Fd) using the following equation: Fd = (Maximal isometric tetanic force (Po) before stretch - Po after stretch/Po before stretch) × 100.

[3] = tested on: GRMD dogs; assay: Histopathologic assessment of skeletal muscles, GRMD dogs; format: in vivo, dog
Procedure: For mice muscles, histopathological assessment was performed as earlier described. For canine samples, CS, lateral gastrocnemius, vastus lateralis, and diaphragm muscles were assessed at the end of the 4-month treatment period when dogs were necropsied. Muscle samples were snap frozen in isopentane cooled in liquid nitrogen, and stored at -80°C. A total of 16 dogs (3 wild type, 2 wild type + NBD, 5 untreated GRMD, and 6 GRMD + NBD) were assessed. Serial frozen sections (n = 10 per dog) from each muscle were processed. For each stain, quantitation was performed on three 10 μm sections of each muscle. To determine the degree of inflammation, cells that stained with a canine specific macrophage PM2K antibody were quantitated. Muscle damage was assessed by scoring for IgG-positive myofibers using immunofluorescence, and necrotic foci by hematoxylin and eosin (H&E) staining. Centrally located nuclei (CLN) were quantified on H&E sections to determine the degree of regeneration. Staining was quantitated on an Olympus BX51 microscope with Microsuite Five software (Olympus Soft Imaging Solutions GmbH, Center Valley, PA, USA). A composite score for all four muscles, reflecting muscle injury, inflammation, and regeneration, was determined.

[4] = dog, in vivo, iv
Excerpt: Having established a treatment regimen that provides efficacy of NBD in mice, we next asked whether such therapy could be applied to a larger animal model of DMD. […] In addition, normal hematology (white blood cell, red blood cell, platelet counts) and serum chemistry (ALT, AST, GGT, bilirubin, creatinine, potassium, creatine kinase) profiles were noted following a single IV injection of NBD in normal dogs (data not shown). Based on our collective data, a preclinical trial in GRMD dogs was initiated with four primary outcomes: skeletal muscle function, MRI of pelvic limb muscles, histopathologic features of skeletal muscles, and safety. Juvenile GRMD (n = 6) and wild type (n = 3) dogs at 2 months of age were treated for 4 months by IV infusions, 3× weekly, at 10 mg/Kg. Results were compared with those collected from untreated GRMD and wild type dogs through a separate, natural history study.

[5] = NBD group, age 2 months (start of treatment)
[6] = age 6 months, NBD 10 mg/kg IV 3x weekly for 4 months
[7] = Average rescue of 4 muscles, NBD 10 mg/kg IV 3x weekly for 4 months
[8] = Cranial sartorius, NBD 10 mg/kg IV 3x weekly for 4 months, p = 0.14
[9] = Diaphragm, NBD 10 mg/kg IV 3x weekly for 4 months
[10] = Lateral gastroc, NBD 10 mg/kg IV 3x weekly for 4 months
[11] = Vastus lateralis, NBD 10 mg/kg IV 3x weekly for 4 months

With “TALDWSWLQTE [NBD, NBD peptide (…) fused to an Antennapedia protein transduction domain]” the “Absolute Tetanic Extension Force” value [1, 5] was 7.50 ± 2.09 N, the “Absolute Tetanic Extension Torque” value [1, 5] was 0.62 ± 0.16 Nm and the “Absolute Tetanic Flexion Force” value [1, 5] was 2.05 ± 0.58 N. The “Absolute Tetanic Flexion Torque” value [1, 5] was 0.17 ± 0.06 Nm, the “Body-mass Corrected Tetanic Extension Force” value [1, 5] was 2.11 ± 0.70 N/kg and the “Body-mass Corrected Tetanic Extension Torque” value [1, 5] was 0.21 ± 0.07 Nm/kg. The “Body-mass Corrected Tetanic Flexion Force” value [1, 5] was 0.57 ± 0.15 N/kg, the “Body-mass Corrected Tetanic Flexion Torque” value [1, 5] was 0.05 ± 0.01 Nm/kg and the “Absolute Tetanic Extension Force” value [1, 6] was 34.30 ± 9.65^1**,2 N. The “Absolute Tetanic Extension Torque” value [1, 6] was 4.55 ± 1.49^1**,2 Nm, the “Absolute Tetanic Flexion Force” value [1, 6] was 6.79 ± 1.13^1 N and the “Absolute Tetanic Flexion Torque” value [1, 6] was 0.89 ± 0.18^1 Nm. For the same sequence, the “Body-mass Corrected Tetanic Extension Force” value [1, 6] was 2.70 ± 0.65^2 N/kg, the “Body-mass Corrected Tetanic Extension Torque” value [1, 6] was 0.36 ± 0.08^1*,2 Nm/kg and the “Body-mass Corrected Tetanic Flexion Force” value [1, 6] was 0.55 ± 0.13 N/kg. The “Body-mass Corrected Tetanic Flexion Torque” value [1, 6] was 0.07 ± 0.02^1 Nm/kg, the “Increase in extension force vs untreated GRMD dogs” value ([1]; pelvic limb, body-mass corrected, NBD 10 mg/kg IV 3x weekly for 4 months, P = 0.038) was 73% and the “ECD (1-10)” value [2, 5] was 16.12 ± 5.88%. The “ECD (1-10)” value [2, 6] was 32.04 ± 13.46%, the “ECD (1-30)” value [2, 5] was 38.67 ± 10.34% and the “ECD (1-30)” value [2, 6] was 54.48 ± 13.64%. The “Inflammation (PM2K-positive macrophages), percent difference GRMD vs GRMD + NBD” value [3, 7] was 35.5%, the “Necrosis (IgG-positive myofibers), percent difference GRMD vs GRMD + NBD” value [3, 7] was 30.3% and the “Regeneration (centrally located nuclei), percent difference GRMD vs GRMD + NBD” value [3, 7] was 40.8%. The “Inflammation (PM2K-positive macrophages), percent difference GRMD vs GRMD + NBD” value ([3]; Cranial sartorius, NBD 10 mg/kg IV 3x weekly for 4 months, p < 0.05) was 34%, the “Necrosis (Foci, H&E), percent difference GRMD vs GRMD + NBD” value [3, 8] was 25% and the “Necrosis (IgG-positive myofibers), percent difference GRMD vs GRMD + NBD” value [3, 8] was 22%. For the same sequence, the “Regeneration (centrally located nuclei), percent difference GRMD vs GRMD + NBD” value ([3]; Cranial sartorius, NBD 10 mg/kg IV 3x weekly for 4 months, reduced, p < 0.05) was 43%, the “Inflammation (PM2K-positive macrophages), percent difference GRMD vs GRMD + NBD” value [3, 9] was 37% and the “Necrosis (Foci, H&E), percent difference GRMD vs GRMD + NBD” value [3, 9] was 37%. For the same sequence, the “Necrosis (IgG-positive myofibers), percent difference GRMD vs GRMD + NBD” value [3, 9] was 32%, the “Regeneration (centrally located nuclei), percent difference GRMD vs GRMD + NBD” value [3, 9] was 41% and the “Final Histological Score of Improvement (composite of all four muscles)” value ([3]; GRMD + NBD vs untreated GRMD, NBD 10 mg/kg IV 3x weekly for 4 months) was 35.5%. For the same sequence, the “Reduction of CS myofiber size vs untreated GRMD muscles” value ([3]; GRMD + NBD, n = 6, 1800 fibers, P <0.05) was 46%, the “Inflammation (PM2K-positive macrophages), percent difference GRMD vs GRMD + NBD” value [3, 10] was 40% and the “Necrosis (Foci, H&E), percent difference GRMD vs GRMD + NBD” value [3, 10] was 34%. For the same sequence, the “Regeneration (centrally located nuclei), percent difference GRMD vs GRMD + NBD” value [3, 10] was 35%, the “Inflammation (PM2K-positive macrophages), percent difference GRMD vs GRMD + NBD” value [3, 11] was 31% and the “Necrosis (IgG-positive myofibers), percent difference GRMD vs GRMD + NBD” value [3, 11] was 32%. The “Regeneration (centrally located nuclei), percent difference GRMD vs GRMD + NBD” value [3, 11] was 44% and the “Hematology and serum chemistry profiles” value [4] was “normal”.

— paper PMC4364341, “NBD delivery improves the disease phenotype of the golden retriever model of Duchenne muscular dystrophy” (Skeletal Muscle, 2014)
